Reference: ChEMBL document CHEMBL4130540, “Multifunctional iminochromene-2H-carboxamide derivatives containing different aminomethylene triazole with BACE1 inhibitory, neuroprotective and metal chelating properties targeting Alzheimer's disease” (Eur J Med Chem, 2017)
The source made the active and inactive calls. The rule behind the calls is not given here.

What was measured:
[1] = system: PC-12; experiment: Cytotoxicity against rat PC12 cells up to 100 uM after 24 hrs by MTT assay; assay type: cell-based; details: pc-12, 24 h
[2] = target: T1, Beta-secretase 1 (Homo sapiens, UniProt P56817); experiment: Inhibition of recombinant human BACE1 (1 to 460 residues) expressed in baculovirus infected insect cells at 10 uM using Rh-EVNLDAEFK-Quencher as substrate incubated under dark condition for 90 mins by FRET assay relative to control
T1 sequence (P56817 whole entry, the tested form may be a part): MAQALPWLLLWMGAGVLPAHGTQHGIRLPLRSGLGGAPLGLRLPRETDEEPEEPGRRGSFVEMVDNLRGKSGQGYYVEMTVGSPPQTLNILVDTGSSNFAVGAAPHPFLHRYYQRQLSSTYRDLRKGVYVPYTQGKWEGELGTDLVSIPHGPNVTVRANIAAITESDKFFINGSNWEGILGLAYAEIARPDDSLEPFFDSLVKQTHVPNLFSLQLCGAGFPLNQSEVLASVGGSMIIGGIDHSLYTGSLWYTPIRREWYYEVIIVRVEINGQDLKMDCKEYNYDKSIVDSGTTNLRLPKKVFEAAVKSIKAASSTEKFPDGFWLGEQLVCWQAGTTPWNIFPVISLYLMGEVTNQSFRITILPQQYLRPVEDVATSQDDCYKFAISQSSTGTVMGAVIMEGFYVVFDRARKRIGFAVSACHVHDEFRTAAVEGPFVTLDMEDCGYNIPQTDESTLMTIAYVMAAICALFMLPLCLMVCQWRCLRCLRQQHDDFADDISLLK

[3] = system: PC-12; experiment: Neuroprotection against amyloid beta (25 to 35)-induced cell death in rat PC12 cells at 25 uM preincubated for 3 hrs followed by amyloid beta addition measured after 24 hrs by MTT assay relative to control; assay type: functional
[4] = target: T1, Beta-secretase 1; experiment: Inhibition of recombinant human BACE1 (1 to 460 residues) expressed in baculovirus infected insect cells at 50 uM using Rh-EVNLDAEFK-Quencher as substrate incubated under dark condition for 90 mins by FRET assay relative to control
[5] = system: PC-12; experiment: Neuroprotection against amyloid beta (25 to 35)-induced cell death in rat PC12 cells at 10 uM preincubated for 3 hrs followed by amyloid beta addition measured after 24 hrs by MTT assay relative to control; assay type: functional
[6] = target: T1, Beta-secretase 1; experiment: Inhibition of recombinant human BACE1 (1 to 460 residues) expressed in baculovirus infected insect cells using Rh-EVNLDAEFK-Quencher as substrate incubated under dark condition for 90 mins by FRET assay
[7] = system: PC-12; experiment: Neuroprotection against amyloid beta (25 to 35)-induced cell death in rat PC12 cells preincubated for 3 hrs followed by amyloid beta addition measured after 24 hrs by MTT assay; assay type: functional, cell-based
[8] = Metal chelating activity assessed as compound-Fe2+ complex formation at 400 uM preincubated with ferrous ion FeCl2 followed by ferrozine addition measured after 10 mins by spectroscopic method
[9] = Metal chelating activity assessed as compound-Fe2+ complex formation at 20 uM after 30 mins by UV-Visible spectroscopic method
[10] = Metal chelating activity assessed as mole fraction of compound required to show 3:2 stoichiometry for Fe2+-compound complex at 20 uM after 30 min by UV-Visible spectroscopic method
[11] = system: PC-12; experiment: Neuroprotection against amyloid beta (25 to 35)-induced cell death in rat PC12 cells at 15 uM preincubated for 3 hrs followed by amyloid beta addition measured after 24 hrs by MTT assay relative to control; assay type: functional

| Compound | Activity [1] | inhibition [2] [%] | Activity [3] [%] | inhibition [4] [%] | Activity [5] [%] | IC50 [6] [µM] | IC50 [7] [µM] | Activity [8] [%] | Activity [9] | Activity [10] [molar ratio] | Activity [11] [%] |
| --- | --- | --- | --- | --- | --- | --- | --- | --- | --- | --- | --- |
| COc1ccc(Cn2cc(CNc3ccc(Br)cc3NC(=O)c3cc4ccccc4oc3=N)nn2)cc1 | Non-Toxic | 10 | 22 | 34.5 | 28.4 | – | – | – | – | – | – |
| N=c1oc2ccccc2cc1C(=O)Nc1cc(Br)ccc1NCc1cn(CCCCN2C(=O)c3ccccc3C2=O)nn1 | Non-Toxic | 55.7 | – | 77.6 | 67.8 | 6.8 | 6.8 | 12.8 | – | – | – |
| O=C(O)CN(CCN(CC(=O)O)CC(=O)O)CC(=O)O | – | – | – | – | – | – | – | 96.4 | – | – | – |
| N=c1oc2ccccc2cc1C(=O)Nc1cc(Br)ccc1NCc1cn(Cc2ccc(Br)cc2)nn1 | Non-Toxic | 72.3 | 37.5 | 100 | 16.4 | 6.4 | 37.8 | 45.2 | Active | 1.5 | – |
| N=c1oc2ccccc2cc1C(=O)Nc1cc(Br)ccc1NCc1cn(Cc2cccc(Cl)c2Cl)nn1 | Non-Toxic | 47.8 | 57.2 | 62 | 23.6 | 15.6 | 18.9 | – | – | – | – |
| N=c1oc2ccccc2cc1C(=O)Nc1cc(Br)ccc1NCc1cn(Cc2ccc(F)cc2)nn1 | Non-Toxic | 21.3 | 22.2 | 45.9 | 13.1 | – | – | – | – | – | – |
| N=c1oc2ccccc2cc1C(=O)Nc1cc(Br)ccc1NCc1cn(CCCN2C(=O)c3ccccc3C2=O)nn1 | Non-Toxic | 83.5 | 100 | 84.2 | 78.8 | 2.2 | 7.9 | 10.2 | – | – | – |
| O=C(O)/C=C/c1ccc(O)c(O)c1 [CAFFEIC ACID] | – | – | – | – | – | – | 75.8 | – | – | – | – |
| N=c1oc2ccccc2cc1C(=O)Nc1cc(Br)ccc1NCc1cn(Cc2ccccc2)nn1 | Non-Toxic | 12.1 | – | 25.2 | – | – | – | – | – | – | – |
| N=c1oc2ccccc2cc1C(=O)Nc1cc(Br)ccc1NCc1cn(Cc2ccc(Cl)c(Cl)c2)nn1 | Non-Toxic | 52 | 49.8 | 60.8 | 21.8 | 7.5 | 90.5 | – | – | – | – |
| Cc1ccc(Cn2cc(CNc3ccc(Br)cc3NC(=O)c3cc4ccccc4oc3=N)nn2)cc1 | Non-Toxic | 38.3 | 19.2 | 52.4 | – | – | – | – | – | – | 83.8 |
